According to patent US7838511B2, “Compositions and methods for treating, preventing and/or ameliorating cancers, the onset of cancers or the symptoms of cancers” (The Board of Regents of the University of Texas System, priority 2003, dated 2010):

How the values were obtained:
[1] = tested on: MCF-7 breast cancer cells; test: MCF-7 breast cancer cell growth / cell number (MTT assay); format: cell-based; conditions: for Cell number (% control): mean ± SEM
Protocol: Using MCF-7 breast cancer cells grown in culture, a dose-response to aspirin (1.25 to 20 mM) was performed initially. After 48 hours of exposure to the various aspirin (acetyl salicylic acid, ASA) concentrations, mitochondrial 3-(4,5-dimethylthiazol-2-yl)-2,5-diphenyltetrazolium bromide (MTT) assays were performed. The MTT assay produces a measure of cell number and is used to monitor growth or inhibition of growth of the MCF-F breast cancer cells, i.e., measure the relative growth inhibitor activity of the compositions.
To test the relative growth inhibitor activity of phospholipid associated aspirin (PC-ASA) preparations, PC-ASA preparations were made having ASA concentrations that gave no more than 50% inhibition of growth (e.g., 2.5 and 5 mM) as shown in FIG. 2. In this example and in all subsequent examples, cell growth was assessed by measuring mitochondrial 3-(4,5-dimethylthiazol-2-yl)-2,5-diphenyltetrazolium bromide (MTT) activity. Those concentration of ASA were chosen so that any PC effects could be readily observed. After the preparation of the PC-ASA preparation, MCF-7 breast cancer cells were exposed for 48 hours to either ASA or a PC-ASA having the same ASA concentration.
MCF-7 breast cancer cells were grown in culture and exposed to aspirin (acetyl salicylic acid, ASA) and PC-ASA at equimolar concentrations. An assay was performed to estimate cell number.

[2] = tested on: MCF-7 breast cancer cells; test: MCF-7 DNA synthesis (thymidine incorporation into cellular DNA); format: cell-based; conditions: 5 mM, mean ± SEM
Protocol: Studies were further performed to determine the mechanism by which ASA and PC-ASA reduced cell number. MCF-7 cells were again grown in the absence or presence of ASA and PC-ASA, and cell proliferation was assessed by measurement of titriated thymidine incorporation into cellular DNA.

[3] = tested on: SW-480 colon cancer cell line; test: SW-480 colon cancer cell number; format: cell-based; conditions: mean ± SEM
Protocol: (§1) PC-NSAIDs were also tested on another type of cancer, a colon cancer cell line, SW-480.

[4] = tested on: SW-480 colon cancer cell line; test: SW-480 colon cancer cell DNA synthesis; format: cell-based; conditions: mean ± SEM
Protocol: as §1

[5] = tested on: Leiomyosarcoma of the bladder; test: Bladder cancer (leiomyosarcoma) in a cat, ultrasonographic follow-up; format: in vivo, domestic cat; conditions: assessed by ultrasound
Protocol: To confirm that the PC-NSAIDs also have anti-cancer activity in vivo, a study has been performed on a domestic cat. As summarized in Table 3, the animal was diagnosed in December of 2003 with Leiomyosarcoma of the bladder, a particularly aggressive form of cancer.
The cat was treated surgically for resection of the tumor and was then placed on standard Vincristine chemotherapy for three weeks. […] Eventually, the tumor began to grow again and a treatment of lecithin combined with an NSAID, piroxicam, was begun. […] The cat is continuing to be treated with PC-piroxicam as of this filing.

MCF-7 cells = test: Lactate dehydrogenase (LDH) release (necrosis) of MCF-7 cells; format: cell-based; conditions: 0.6 mM, 5 hours; FIG. 4
Protocol: The growth inhibitor activity of the PC-ASA preparations on MCF-7 cells could be through increased apoptosis or necrosis or inhibition of cell proliferation. To differentiate between the first two possibilities, the effect of the PC-ASA preparations on release of the cytosolic enzyme lactate dehydrogenase (LDH) as a measure of necrosis were performed. For this study, MCF-7 cells were exposed to 2.5 and 5 mM ASA or PC-ASA preparations for 48 hours, as before. The media was collected and assayed for LDH activity (the assay is a kit available from Sigma Chemical Co., St. Louis, Mo.). To act as a positive control, some cells were exposed to a bile acid, 0.6 mM sodium deoxycholate (DOC), for 5 hours before LDH assay. […] Yet the ASA and PC-ASA preparations clearly reduce the number of MCF-7 cells at these concentrations. The most likely explanation for these findings is that the NSAIDs are inducing apoptosis rather than necrosis. This possibility is consistent with reports in the literature (see, e.g., Xiaojun L, Xie W, Reed D, Bradshaw W S, Simmons D L. Nonsteroidal antiinflammatory drugs cause apoptosis and induce cyclooxygenases in chicken embryo fibroblasts. Proc Natl Acad Sci USA 1995; 92:7961-7965.). Another possibility is that the PC-NSAID act by inhibiting cell proliferation.

Compound	Cell number (% control) ([1]; MCF-7, 5 mM)	DNA synthesis (% control) [2]	Cell number (% control) ([3]; 5 mM)	DNA synthesis (% control) ([4]; 5 mM)	Cell number (% control) ([3]; 1 mM)	DNA synthesis (% control) ([4]; 1 mM)	further results
CC(=O)Oc1ccccc1C(=O)O [ASA, acetyl salicylic acid]	55 ± 3 % Control	85 ± 8 % Control	68 ± 3 % control	102 ± 4 % control	–	–	inhibition of growth ([1]; ASA 2.5 and 5 mM, MTT, FIG. 2): no more than 50%; ASA concentration with inhibitor effect on growth of the cells ([1]; MTT assay, 48 hours exposure, dose-response 1.25 to 20 mM, FIG. 2): ≥ 2.5 mM
CC(C)Cc1ccc(C(C)C(=O)O)cc1 (stereo not drawn) [IBU, ibuprofen]	–	–	–	–	81 ± 2 % control	79 ± 1 % control	–
CC[C@]1(O)C[C@H]2CN(CCc3c([nH]c4ccccc34)[C@@](C(=O)OC)(c3cc4c(cc3OC)N(C=O)[C@H]3[C@@](O)(C(=O)OC)[C@H](OC(C)=O)[C@]5(CC)C=CCN6CC[C@]43[C@@H]65)C2)C1 [Vincristine]	–	–	–	–	–	–	effect on tumor growth (in words) [5]: did not stop the remaining tumor growth
phosphatidylcholine [PC]	114 ± 3 % Control	41 ± 1 % Control	106 ± 7 % control	65 ± 4 % control	106 ± 13 % control	97 ± 5 % control	inhibiting the growth of the breast cancer cells (in words) ([1]; 2.5 and 5 mM, 48 hours, MTT, FIG. 3): did not adversely affect the growth of the cells; inhibiting the growth of the breast cancer cells (in words, Table 1) ([1]; MCF-7, 5 mM, equimolar): not effective at inhibiting the growth of the cells
sodium deoxycholate [DOC]	–	–	–	–	–	–	LDH release (necrosis), positive control (MCF-7 cells): caused the release of cellular LDH
